Laboratory results as given in US12187723B2 (BRISTOL-MYERS SQUIBB COMPANY, priority 2019, dated 2025).

biological target: T1, human TLR7 (Homo sapiens, UniProt Q9NYK1); assay: TLR7 inhibition reporter assay (HEK-Blue SEAP); type: cell-based; conditions: HEK-Blue cells overexpressing human TLR7, gardiquimod 7.5 μM, 22 hour incubation
T1 construct: host or cells: HEK-Blue cells
T1 sequence (Q9NYK1 27-1049): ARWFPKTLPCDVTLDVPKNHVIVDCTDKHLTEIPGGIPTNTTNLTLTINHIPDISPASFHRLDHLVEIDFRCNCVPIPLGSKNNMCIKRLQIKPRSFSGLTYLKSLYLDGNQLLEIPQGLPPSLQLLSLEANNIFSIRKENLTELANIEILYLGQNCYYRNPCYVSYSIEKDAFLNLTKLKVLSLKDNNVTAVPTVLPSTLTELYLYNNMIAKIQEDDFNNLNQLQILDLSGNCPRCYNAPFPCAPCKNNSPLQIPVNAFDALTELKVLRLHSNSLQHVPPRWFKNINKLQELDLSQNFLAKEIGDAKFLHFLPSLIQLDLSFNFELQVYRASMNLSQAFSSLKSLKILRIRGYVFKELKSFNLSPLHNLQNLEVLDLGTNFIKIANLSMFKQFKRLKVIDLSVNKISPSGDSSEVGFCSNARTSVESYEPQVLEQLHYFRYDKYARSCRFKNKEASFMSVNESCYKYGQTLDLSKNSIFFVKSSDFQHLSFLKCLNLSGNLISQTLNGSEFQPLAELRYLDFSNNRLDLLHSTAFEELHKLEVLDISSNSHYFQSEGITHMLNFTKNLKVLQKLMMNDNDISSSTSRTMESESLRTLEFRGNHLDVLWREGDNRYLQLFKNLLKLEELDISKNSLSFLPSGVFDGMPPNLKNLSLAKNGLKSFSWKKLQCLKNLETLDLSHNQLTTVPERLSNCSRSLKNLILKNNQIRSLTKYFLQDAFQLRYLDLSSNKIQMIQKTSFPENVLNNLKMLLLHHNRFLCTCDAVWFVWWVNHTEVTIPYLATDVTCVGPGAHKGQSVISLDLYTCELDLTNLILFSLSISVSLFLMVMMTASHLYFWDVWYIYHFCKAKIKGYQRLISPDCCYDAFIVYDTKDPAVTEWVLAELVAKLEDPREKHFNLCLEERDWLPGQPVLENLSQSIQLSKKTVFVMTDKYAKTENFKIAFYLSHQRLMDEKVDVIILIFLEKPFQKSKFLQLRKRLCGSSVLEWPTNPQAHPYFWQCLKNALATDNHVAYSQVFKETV
In short: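 Dose-response testing from 0.05 nM to 50 μM final was done on reporter cells for 22 hours at 37° C. Secreted SEAP was then detected, and inhibition was calculated as percent reduction of the agonist-plus-DMSO signal compared with wells given a known inhibitor.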

SMILES	IC50 [nM]
COc1cc(-c2cc3[nH]c(=O)n([C@@H]4CCCN(C5COC5)C4)c3cc2C)cn2ncnc12 [Example 72, (R)-5-(8-methoxy-[1,2,4]triazolo[1,5-a]pyridin-6-yl)-6-methyl-1-(1-(oxetan-3-yl)piperidin-3-yl)-1,3-dihydro-2H-benzo[d]imidazol-2-one]	676
CNC(=O)CN1CCC(n2c(=O)[nH]c3cc(-c4cc(OC)c5ncnn5c4)c(C)cc32)CC1 [Example 87, 2-(4-(5-(8-methoxy-[1,2,4]triazolo[1,5-a]pyridin-6-yl)-6-methyl-2-oxo-2,3-dihydro-1H-benzo[d]imidazol-1-yl)piperidin-1-yl)-N-methylacetamide]	497
COc1cc(-c2ccc3c(c2)[nH]c(=O)n3C2CCN(C3CCC3)CC2)cn2ncnc12 [Example 83, 1-(1-cyclobutylpiperidin-4-yl)-5-(8-methoxy-[1,2,4]triazolo[1,5-a]pyridin-6-yl)-1,3-dihydro-2H-benzo[d]imidazol-2-one]	2480
COc1cc(-c2ccc3c(c2)[nH]c(=O)n3C2CCN(C)CC2)cn2ncnc12 [Example 74, 5-(8-methoxy-[1,2,4]triazolo[1,5-a]pyridin-6-yl)-1-(1-methylpiperidin-4-yl)-1,3-dihydro-2H-benzo[d]imidazol-2-one]	948
COc1cc(-c2ccc3c(c2)[nH]c(=O)n3C2CCN(CC3CC3)CC2)cn2ncnc12 [Example 79, 1-(1-(cyclopropylmethyl)piperidin-4-yl)-5-(8-methoxy-[1,2,4]triazolo[1,5-a]pyridin-6-yl)-1,3-dihydro-2H-benzo[d]imidazol-2-one]	> 3130
CCCN1CCC(n2c(=O)[nH]c3cc(-c4cc(OC)c5ncnn5c4)ccc32)CC1 [Example 76, 5-(8-methoxy-[1,2,4]triazolo[1,5-a]pyridin-6-yl)-1-(1-propylpiperidin-4-yl)-1,3-dihydro-2H-benzo[d]imidazol-2-one]	1480
CCN[C@H]1CC[C@@H](n2c(=O)[nH]c3cc(-c4cc(OC)c5ncnn5c4)c(C)cc32)CC1 [Example 63, 1-((1s,4s)-4-(ethylamino)cyclohexyl)-5-(8-methoxy-[1,2,4]triazolo[1,5-a]pyridin-6-yl)-6-methyl-1,3-dihydro-2H-benzo[d]imidazol-2-one]	45.1

The next compounds have a lower IC50 than those just listed; values first:

IC50 [nM]	SMILES
23.1	COc1cc(-c2cc3[nH]c(=O)n([C@@H]4CCCN(CC5CC5)C4)c3cc2C)cn2ncnc12 [Example 55, (R)-1-(1-(cyclopropylmethyl)piperidin-3-yl)-5-(8-methoxy-[1,2,4]triazolo[1,5-a]pyridin-6-yl)-6-methyl-1,3-dihydro-2H-benzo[d]imidazol-2-one]
8.11	COc1cc(-c2cc3[nH]c(=O)n([C@@H]4CCCN(CC5CCOCC5)C4)c3cc2C)cn2ncnc12 [Example 57, (R)-5-(8-methoxy-[1,2,4]triazolo[1,5-a]pyridin-6-yl)-6-methyl-1-(1-((tetrahydro-2H-pyran-4-yl)methyl)piperidin-3-yl)-1,3-dihydro-2H-benzo[d]imidazol-2-one]
18.5	Cc1cc2c(cc1-c1cc(C)c3ncnn3c1)[nH]c(=O)n2[C@@H]1CCCN(CC2CCCC2)C1 [Example 47, (R)-1-(1-(cyclopentylmethyl)piperidin-3-yl)-6-methyl-5-(8-methyl-[1,2,4]triazolo[1,5-a]pyridin-6-yl)-1,3-dihydro-2H-benzo[d]imidazol-2-one]
26.3	CCCN1CCC[C@@H](n2c(=O)[nH]c3cc(-c4cc(C)c5ncnn5c4)c(C)cc32)C1 [Example 42, (R)-6-methyl-5-(8-methyl-[1,2,4]triazolo[1,5-a]pyridin-6-yl)-1-(1-propylpiperidin-3-yl)-1,3-dihydro-2H-benzo[d]imidazol-2-one]
21.4	COc1cc(-c2cc3[nH]c(=O)n([C@H]4CC[C@@H](N(C)C5CCOCC5)CC4)c3cc2C)cn2ncnc12 [Example 85, 5-(8-methoxy-[1,2,4]triazolo[1,5-a]pyridin-6-yl)-6-methyl-1-((1s,4s)-4-(methyl(tetrahydro-2H-pyran-4-yl)amino)cyclohexyl)-1,3-dihydro-2H-benzo[d]imidazol-2-one]
